Measured values reported in patent publication US20260250320A1, “LIPIDATED PEPTIDE INHIBITORS OF INTERLEUKIN-23 RECEPTOR” (Janssen Pharmaceutica NV, priority 2023, published 2026).
pIC50: −log10 of the molar value. *1 amine or outer side, *2 acyl side, *3 side chain or, on linkers, in order; H or OH if unused. Where a SMILES comes first, the peptide text is derived from it. Bridges are numbered along the chain shown (N, C = ends). Side-chain parts run from the residue outwards. [ ]: non-standard residue; d: D form. The star is where a group is joined. Trp(7-Me) = Cc1cccc2c(C[C@H](N)C(=O)O)c[nH]c12; Abu(4-yl) = O=C([C@H](CC[*:3])N[*:1])[*:2]; C18 diacid = O=C(O)CCCCCCCCCCCCCCCCC(=O)*; γGlu = O=C(O)[C@H](CCC(=O)[*:2])N[*:1]; 2Nal = N[C@@H](Cc1ccc2ccccc2c1)C(=O)O; AEF = NCCOc1ccc(C[C@H](N)C(=O)O)cc1; X2 = C[N+](C)(C)C[C@@H](CC(=O)O)N*; 3Pal = N[C@@H](Cc1cccnc1)C(=O)O; NMeK = CN[C@@H](CCCCN)C(=O)O; Pen = CC(C)(S)[C@H](N)C(=O)O; Suc = O=C(CCC(=O)[*:2])[*:1]; Lauroyl = CCCCCCCCCCCC(=O)*; αMeC = C[C@](N)(CS)C(=O)O; Thp = NC1(C(=O)O)CCOCC1; AEEA = NCCOCCOCC(=O)O; Sar = CNCC(=O)O

molecular target: T1, IL-23R (Homo sapiens, UniProt Q5VWK5); assay: IL23R Reporter Assay; assay type: cell-based; conditions: HEK293 cells containing IL-23R, IL-12Rβ1 and STAT-inducible firefly luciferase reporter; 10 ng/mL IL-23 (EC90); 5 h
T1 construct: HEK293 cells containing IL-23R, IL-12Rβ1 and a firefly luciferase reporter gene driven by a STAT-inducible promoter (Promega); host or cells: HEK293
T1 sequence (Q5VWK5 24-629): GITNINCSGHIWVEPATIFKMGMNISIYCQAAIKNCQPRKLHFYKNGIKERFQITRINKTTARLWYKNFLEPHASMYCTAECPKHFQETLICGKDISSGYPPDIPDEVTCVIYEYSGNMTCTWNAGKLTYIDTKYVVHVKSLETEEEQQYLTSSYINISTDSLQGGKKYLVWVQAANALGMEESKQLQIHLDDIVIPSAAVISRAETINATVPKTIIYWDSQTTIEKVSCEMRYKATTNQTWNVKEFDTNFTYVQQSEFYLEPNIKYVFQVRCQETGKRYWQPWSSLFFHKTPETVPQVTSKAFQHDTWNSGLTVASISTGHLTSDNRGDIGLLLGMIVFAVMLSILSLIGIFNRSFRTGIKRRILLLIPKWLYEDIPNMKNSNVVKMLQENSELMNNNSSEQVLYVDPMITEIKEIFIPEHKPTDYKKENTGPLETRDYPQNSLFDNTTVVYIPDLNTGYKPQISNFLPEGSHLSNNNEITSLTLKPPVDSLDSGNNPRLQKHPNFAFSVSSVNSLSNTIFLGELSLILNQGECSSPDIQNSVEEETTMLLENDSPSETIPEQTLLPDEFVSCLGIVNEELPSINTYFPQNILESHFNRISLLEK
Procedure: Compounds were serially diluted in 100% (v/v) DMSO) and plated using an Echo acoustic dispenser (Labcyte) into 1536-well non-treated black assay plates (Corning #9146). 3 μL of HEK293 cells containing IL-23R, IL-12Rβ1 and a firefly luciferase reporter gene driven by a STAT-inducible promoter (Promega) were added to the plates (4000 cells/well), followed by 3 μL of 10 ng/mL IL-23 (equivalent to EC90 concentration). After 5 h at 37° C., 5% CO2, 95% relative humidity, cells were placed at 20° C. and treated with BioGlo reagent (Promega) according to the Manufacturer's instructions. Luminescence was measured on a Pherastar FSX (BMG LabTech). Data were normalized to IL-23 treatment (0% inhibition) and 30 μM of control inhibitor (100% inhibition), and IC50 values were determined using a 4-parameter Hill equation.

Row | pIC50 | Compound
1 | > 7.30 | CC(=O)NCCCC[C@@H]1NC(=O)[C@H](Cc2c[nH]c3c(C)cccc23)NC(=O)[C@H]([C@@H](C)O)NC(=O)[C@H](CCCCNC(=O)CCC(=O)N[C@H](CC(=O)O)C[N+](C)(C)C)NC(=O)[C@@H](NC(=O)[C@@H](CCCNC(=N)N)NC(=O)COCCOCCNC(=O)COCCOCCNC(=O)CC[C@H](NC(=O)CCCCCCCCCCCCCCCCC(=O)O)C(=O)O)C(C)(C)SSC(C)(C)[C@@H](C(=O)N[C@@H](Cc2ccc(OCCN)cc2)C(=O)N[C@@H](Cc2ccc3ccccc3c2)C(=O)NC2(C(=O)N[C@@H](CCC(=O)O)C(=O)N[C@@H](CC(N)=O)C(=O)N[C@@H](Cc3cccnc3)C(=O)N(C)CC(N)=O)CCOCC2)NC1=O [compound 47, HOC18gEPEG2PEG2CO-r-Pen(3)-K(d)-T-7MeW-K(Ac)-Pen(3)-AEF-2Nal-THP-E-N-3Pya-Sar-CONH2] ({C18 diacid-γGlu-AEEA-AEEA}-[dR][Pen]K([Suc-X2])T[Trp(7-Me)]K(Ac)[Pen][AEF][2Nal][Thp]EN[3Pal][Sar]-NH2; disulfide 2-7)
2 | > 7.30 | CCCCCCCCCCCCCC(=O)N(C)CC(=O)N[C@@H](CO)C(=O)N(C)CC(=O)N[C@@H](CO)C(=O)N(C)CC(=O)N[C@@H](CO)C(=O)N(C)CC(=O)NCCCC[C@H](NC(=O)CN(C)C(=O)[C@H](Cc1cccnc1)NC(=O)[C@H](CC(N)=O)NC(=O)[C@H](CCC(=O)O)NC(=O)C1(NC(=O)[C@H](Cc2ccc3ccccc3c2)NC(=O)[C@H](Cc2ccc(OCCN)cc2)NC(=O)C2NC(=O)[C@H](CCCCNC(C)=O)NC(=O)[C@H](Cc3c[nH]c4c(C)cccc34)NC(=O)[C@H]([C@@H](C)O)NC(=O)[C@H](CC(N)=O)NC(=O)[C@@H](NC(C)=O)C(C)(C)SSC2(C)C)CCOCC1)C(N)=O (stereo partly drawn) [compound 1, MeCO-Pen(3)-N-T-7MeW-K(Ac)-Pen(3)-AEF-2Nal-THP-E-N-3Pya-Sar-K(Sar-S-Sar-S-Sar-S-Sar-C14)-CONH2]
3 | 6.30 to 7.30 | CC(=O)N[C@H](CCCNC(=N)N)C(=O)N[C@@H]1C(=O)N[C@@H](CC(N)=O)C(=O)N[C@@H]([C@@H](C)O)C(=O)N[C@@H](Cc2c[nH]c3c(C)cccc23)C(=O)N[C@@H](CCCCNC(=O)CCC(=O)N[C@H](CC(=O)O)C[N+](C)(C)C)C(=O)N[C@H](C(=O)N[C@@H](Cc2ccc(OCCN)cc2)C(=O)N[C@@H](Cc2ccc3ccccc3c2)C(=O)NC2(C(=O)N[C@@H](CCC(=O)O)C(=O)N[C@@H](CC(N)=O)C(=O)N[C@@H](Cc3cccnc3)C(=O)N(C)[C@@H](CCCCNC(=O)COCCOCCNC(=O)COCCOCCNC(=O)CC[C@H](NC(=O)CCCCCCCCCCCCCCCCC(=O)O)C(=O)O)C(N)=O)CCOCC2)C(C)(C)SSC1(C)C [compound 29, MeCO-r-Pen(3)-N-T-7MeW-K(D)-Pen(3)-AEF-2Nal-THP-E-N-3Pya-NMeK(PEG2PEG2gEC18OH)-CONH2] (Ac-[dR][Pen]NT[Trp(7-Me)]K([Suc-X2])[Pen][AEF][2Nal][Thp]EN[3Pal][NMeK]([AEEA-AEEA-γGlu-C18 diacid])-NH2; disulfide 2-7)
4 | > 7.30 | CCCCCCCCCCCC(=O)N[C@@H](CCC(=O)NCCOCCOCC(=O)NCCOCCOCC(=O)N[C@H](CCCNC(=N)N)C(=O)N[C@H]1CCSC[C@@](C)(C(=O)N[C@@H](Cc2ccc(OCCN)cc2)C(=O)N[C@@H](Cc2ccc3ccccc3c2)C(=O)NC2(C(=O)N[C@@H](CCC(=O)O)C(=O)N[C@@H](CC(N)=O)C(=O)N[C@@H](Cc3cccnc3)C(=O)N(C)CC(N)=O)CCOCC2)NC(=O)[C@H](CCCCNC(C)=O)NC(=O)[C@H](Cc2c[nH]c3c(C)cccc23)NC(=O)[C@H]([C@@H](C)O)NC(=O)[C@H](CC(N)=O)NC1=O)C(=O)O [compound 6, C12gEPEG2PEG2CO-r-Abu(1)-N-T-7MeW-K(Ac)-aMeC(1)-AEF-2Nal-THP-E-N-ePya-Sar CONH2] ({Lauroyl-γGlu-AEEA-AEEA}-[dR][Abu(4-yl)]NT[Trp(7-Me)]K(Ac)[αMeC][AEF][2Nal][Thp]EN[3Pal][Sar]-NH2; thioether 2-7)
